# In patent US20080008658A1, “Contrast Agent Formulations for the Visualization of the Lymphatic System” (Bracco Imaging SpA, priority 2004, published 2008):
# Experiment: Particle size distribution of microbubble suspensions in the Coulter Multisizer, method b (flotation purification from gas-free particles)
# Format: physicochemical
# Procedure: Dye-containing suspensions of gas-containing ultrasound contrast agents of the invention were analyzed for the particle size distributions in the Coulter® Multisizer (Beckman Coulter Inc. Fullerton, Calif., USA). […] Two methods may be used to determine the distribution of just the gas-containing particles in the compositions of the invention. Method b) The frequency distribution of the diameter of gas-containing particles is obtained after purification of the initial particle suspension from gas-free particles. Purification is achieved by flotation of the gas-containing particles in a centrifuge and substitution of the infranatant containing the gas-free particles with fresh saline. The procedure is executed once or twice depending on the initial contamination by gas-free particles. This method is preferable in those cases wherein the amount of insoluble material in the gas-containing particles exceeds 10% of the total insoluble material, in the initial suspension. The results may be represented either in the form of plots of the frequency distributions (e.g. example 11 and FIG. 1) or as parameters elaborated therefrom, i. e. total microbubble concentration, total microbubble surface, microbubble volume concentration and mean diameter in number (e.g. example 12). […]
smiles,measurement,setting,value
Cc1cc(-c2ccc(/N=N/c3ccc4c(S(=O)(=O)O)cc(S(=O)(=O)O)c(N)c4c3O)c(C)c2)ccc1/N=N/c1ccc2c(S(=O)(=O)O)cc(S(=O)(=O)O)c(N)c2c1O [Evans blue],Interference with the regular formation of microbubbles,"SonoVue reconstituted with saline containing Evans blue vs regular SonoVue, echographic perspective",negligible
same,Stability of the microbubbles,"time 0 vs after 3 h, presence of Evans blue",did not jeopardize the stability of the microbubbles
